“Also recorded” adds a separate entry of the source.
Columns and labels:
[1] = target: T1, PARP cleavage activity in apoptotic osteosarcoma cell extracts (Homo sapiens, UniProt P42574); assay: [35S]PARP cleavage by cytosolic extracts of apoptotic osteosarcoma cells; assay type: biochemical; conditions: for IC50: apoptotic osteosarcoma cell extracts, [35S]PARP, read-out: IC50 for inhibition of PARP cleavage activity; for effect on proteolytic cleavage of PARP: FIG. 2a, 5 mM N-ethylmaleimide, 5 mM iodoacetamide, 10 μM E-64
T1 construct: 10 μg protein from the cytosol fraction of apoptotic osteosarcoma cells (from 7 day, post-confluent cultures); endogenous in cells; host or cells: human osteosarcoma cells 143.98.2 (ATCC CRL 11226), 7 day post-confluent (apoptotic), cytosol fraction
T1 sequence (P42574 29-175 limits assumed): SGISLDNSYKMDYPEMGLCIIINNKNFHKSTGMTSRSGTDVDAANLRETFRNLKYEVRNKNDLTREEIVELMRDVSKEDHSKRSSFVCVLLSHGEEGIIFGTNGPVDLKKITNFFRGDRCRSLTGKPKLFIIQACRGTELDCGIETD
T1 sequence (P42574 176-277 limits assumed): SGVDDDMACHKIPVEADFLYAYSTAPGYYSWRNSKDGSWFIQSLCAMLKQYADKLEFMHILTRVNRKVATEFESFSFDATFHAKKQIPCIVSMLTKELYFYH

apopain/CPP32 = target: T2, apopain/CPP32 (Homo sapiens, UniProt P42574); assay: continuous fluorometric assay with Ac-DEVD-AMC and purified apopain; assay type: biochemical
T2 construct: cleavage between Asp^28 -Ser^29 and Asp^175 -Ser^176; cleavage sites which yield the p17 and p12 subunits from the CPP32 proenzyme; endogenous in cells; host or cells: THP-1 cells (ATCC TIB 202)
T2 sequence (P42574 29-175 limits assumed): T1 sequence (P42574 29-175 limits assumed)
T2 sequence (P42574 176-277 limits assumed): T1 sequence (P42574 176-277 limits assumed)

intact cells = assay: activity in intact cells; assay type: cell-based

| Structure (SMILES) | IC50 [1] [µM] | effect on proteolytic cleavage of PARP [1] | also measured |
| --- | --- | --- | --- |
| CC(=O)N[C@@H](CC(=O)O)C(=O)N[C@@H](CCC(=O)O)C(=O)N[C@H](C(=O)N[C@@H](CC(=O)O)C(=O)O)C(C)C [Ac-DEVD-COOH, N-Acetyl-aspartyl-glutamyl-valinyl-aspartic acid] | > 10 |  |  |
| NC(=O)CI [iodoacetamide] |  | abolished |  |
| CC(C)C[C@H](NC(=O)[C@H]1O[C@@H]1C(=O)O)C(=O)NCCCCN=C(N)N [Example E-64] |  | not |  |
| CC(=O)N[C@@H](Cc1ccc(O)cc1)C(=O)N[C@H](C(=O)N[C@@H](C)C(=O)N[C@H](C=O)CC(=O)O)C(C)C [Ac-YVAD-CHO] | > 10 |  | Ki (apopain/CPP32): 12 µM |
| CCN1C(=O)C=CC1=O [N-ethylmaleimide] |  | abolished |  |
| CC(=O)N[C@@H](CC(=O)O)C(=O)N[C@@H](CCC(=O)O)C(=O)N[C@H](C(=O)NC(C=O)CC(=O)O)C(C)C (stereo partly drawn) [Ac-DEVD-CHO, N-(N-Acetyl-L-aspartyl-L-glutamyl-L-valinyl)-3-amino-3-formylpropionic acid] |  |  | activity in intact cells (intact cells): inactive; membrane permeability (intact cells): membrane impermeable; enzyme activity at infinite time (apopain/CPP32; 50 nM inhibitor, 1×Km Ac-DEVD-AMC): complete inhibition; also recorded: nearly complete suppression |
